Results on 8 molecules are retold here after patent publication US20080090836A1, “Pyrazole Compounds Useful In The Treatment Of Inflammation” (priority 2004, published 2008).

The target in the assay is T1, purified human 15-lipoxygenase (Homo sapiens, UniProt P16050).
T1 sequence (P16050 1-662): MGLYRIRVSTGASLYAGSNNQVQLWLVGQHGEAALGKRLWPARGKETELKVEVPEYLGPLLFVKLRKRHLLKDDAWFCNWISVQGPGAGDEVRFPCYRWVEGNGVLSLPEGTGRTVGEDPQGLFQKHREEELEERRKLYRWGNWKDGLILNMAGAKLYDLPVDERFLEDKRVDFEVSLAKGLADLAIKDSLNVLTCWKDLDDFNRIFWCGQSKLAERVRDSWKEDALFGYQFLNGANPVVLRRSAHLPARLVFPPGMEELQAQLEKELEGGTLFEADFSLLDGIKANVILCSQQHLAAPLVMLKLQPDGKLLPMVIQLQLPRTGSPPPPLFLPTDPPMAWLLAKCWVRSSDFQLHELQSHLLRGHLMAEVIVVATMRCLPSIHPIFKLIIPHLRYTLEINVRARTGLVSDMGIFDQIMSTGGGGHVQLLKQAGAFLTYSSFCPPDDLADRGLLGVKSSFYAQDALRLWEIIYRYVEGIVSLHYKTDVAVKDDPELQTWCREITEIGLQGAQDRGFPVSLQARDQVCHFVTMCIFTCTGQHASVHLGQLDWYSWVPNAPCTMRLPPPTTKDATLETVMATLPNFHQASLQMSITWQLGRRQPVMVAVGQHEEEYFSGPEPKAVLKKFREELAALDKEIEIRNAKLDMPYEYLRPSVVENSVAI
Put plainly: 15-lipoxygenase inhibition assay (oxidation of arachidonic acid, product measured by reverse phase HPLC). Format: biochemical. Conditions: arachidonic acid substrate, room temperature, PBS pH 7.4. The protocol: The assay employed takes advantage of the ability of lipoxygenases to oxidize polyunsaturated fatty acids, containing a 1,4-cis-pentadiene configuration, to their corresponding hydroperoxy or hydroxyl derivatives. In this particular assay, the lipoxygenase was a purified human 15-lipoxygenase and the fatty acid was arachidonic acid. The assay is performed at room temperature (20-22° C.) and the following are added to each well in a 96-well microliter plate:
a) 35 μL phosphate buffered saline (PBS) (pH 7.4);
b) inhibitor (i.e. compound) or vehicle (0.5 μl DMSO);
c) 10 μL of a 10× concentrated solution of 15-lipoxygenase in PBS. The plates are incubated for 5 minutes at room temperature;
The plate is then incubated for 10 minutes at room temperature;
e) the enzymatic reaction is terminated by the addition of 100 μl methanol; and
f) the amount of 15-hydroperoxy-eicosatetraenoic acid or 15-hydroxyeicosatetraenoic acid is measured by reverse phase HPLC.
The molecule `Cc1cn(C(=O)NCCc2cccs2)nc1C(=O)Nc1ccc(F)cc1Cl` [Example 4, 4-Methylpyrazole-1,3-dicarboxylic acid 3-[(2-chloro-4-fluorophenyl)-amide] 1-[(2-thien-2-ylethyl)amide]] came in with an IC50 of 3.71 µM.

In the case of `CCOC(=O)CNC(=O)n1cc(C)c(C(=O)Nc2ccc(F)cc2Cl)n1` [Example 17, {[3-(2-Chloro-4-fluorophenylcarbamoyl)-4-methylpyrazole-1-carbonyl]-amino}acetic acid ethyl ester], the IC50 was determined as 8.51 µM.

As for `Cc1cc(C(=O)Nc2ccc(F)cc2Cl)nn1C(=O)NCCc1cccs1` [Example 30, 5-Methylpyrazole-1,3-dicarboxylic acid 3-[(2-chloro-4-fluorophenyl)-amide] 1-[(2-thien-2-ylethyl)-amide]], the IC50 stood at 0.71 µM.

Consider `CCOC(=O)CNC(=O)n1nc(C(=O)Nc2ccc(F)cc2Cl)cc1C` [Example 31, {[3-(2-Chloro-4-fluorophenylcarbamoyl)-5-Methylpyrazole-1-carbonyl]-amino}-acetic acid ethyl ester], for which inhibition was half-maximal at 0.63 µM (IC50).

In the case of `Cc1cc(C(=O)Nc2ccc(F)cc2Cl)nn1C(=O)NC1CCN(C(=O)OCc2ccccc2)CC1` [Example 32, 4-{[3-(2-Chloro-4-fluorophenylcarbamoyl)-5-methylpyrazole-1-carbonyl]amino}-piperidine-1-carboxylic acid benzyl ester], the IC50 is 0.66 µM.

Consider `C=CCNC(=O)n1nc(C(=O)Nc2ccc(F)cc2Cl)cc1C` [Example 33, 5-Methylpyrazole-1,3-dicarboxylic acid 1-allylamide 3-[(2-chloro-4-fluorophenyl)amide]], for which the IC50 came out at 5.6 µM.

Regarding `CCCCOc1ccc(S(=O)(=O)n2nc(C(=O)Nc3ccc(F)cc3Cl)cc2C)cc1` [Example 50, 1-(4-Butoxy-benzenesulfonyl)-5-methylpyrazole-3-carboxylic acid (2-chloro-4-fluorophenyl)amide], inhibition was half-maximal at 8.33 µM (IC50).

`COc1ccc(S(=O)(=O)n2nc(C(=O)Nc3ccc(F)cc3Cl)cc2C)cc1` [Example 51, 1-(4-Methoxy-benzenesulfonyl)-5-methylpyrazole-3-carboxylic acid (2-chloro-4-fluorophenyl)amide] came in with an IC50 of 5.87 µM. The IC50 values of the last two molecules are within 1.5-fold of each other.
